According to patent publication US20030104473A1, “Common ligand mimics: benzimidazoles” (priority 2001, published 2003):
Like-named read-outs stand apart in the source and are kept apart here.

Assays:
[1] = target: dihydrodipicolinate reductase (DHPR) (Escherichia coli, UniProt P04036); test: DHPR kinetic assay, spectrophotometric oxidation of NADPH at 340 nm; assay type: biochemical
Method: For DHPR analysis, the compounds were screened using a kinetic protocol that spectrophotometrically evaluates oxidation of NADPH.
Stock solutions of each of the reagents were prepared in the following concentrations. Dilutions of the stock solutions were prepared prior to running the assay in the concentrations indicated below. DHPR was diluted in 10 mM HEPES at a pH of 7.4. DHPS (dihydrodipicolinate synthase) was not diluted and was stored in eppindorf tubes.
The L-ASA (L-aspartate semialdehyde) solution was prepared in the following manner. […] stock solution of ASA was prepared. 100 μl of the ASA stock solution was mixed with 150 μl of concentrated NaHCO3 and 375 μl of H2O. For use in the assay, 28.8 mM L-ASA was equal to 625 μl of the solution. The L-ASA stock Aft solution was kept at a temperature of −20° C. After dilution, the pH of the 28.8 mM solution was checked and maintained between 1 and 2.
The DHPS reaction was monitored at 340 nm prior to and after addition of the inhibitor to detect background reaction with the inhibitor. The solution for background detection was a 945 μl solution containing 0.1 HEPES (pH 7.8), 1 mM pyruvate, 6 μM NADPH, 40 μM L-ASA, and 7 μl of 1 mg/ml DHPS at 25° C. in the volumes provided above. The sample solution was then mixed and incubated for 10 minutes. Next, 500 nM solutions of the inhibitors and enough DMSO to provide a final DMSO concentration of 5% of the total assay volume were added. The solution was mixed and incubated for an additional 6 minutes.
In DHPR samples, 5 μl of the diluted DHPR enzyme were added. The sample was mixed for 20 seconds and then the reaction was run for 10 minutes. After a 50 second lag, the samples were read in a Cary spectrophotometer at 340 nm. Reading of the samples was continued until 300 seconds. Cuvette #1 contained the control reaction (no inhibitor), and cuvette #2 contained the positive control reaction in which Cibacron Blue at 2.58 μM was substituted for inhibitor to yield 70 to 80% inhibition. The substrate was kept at a level at least 10 times the Km. The final concentration of L-ASA was about 1 mM.

[2] = target: 1-deoxy-D-xylulose-5-phosphate reductase (DOXPR) (Escherichia coli, UniProt P45568); test: DOXPR kinetic assay, spectrophotometric oxidation of NADPH at 340 nm; assay type: biochemical; settings: Cibacron Blue at 10.32 μM; read-out: inhibition of DOXPR (positive control)
Sequence of 1-deoxy-D-xylulose-5-phosphate reductase (DOXPR) (P45568 whole entry): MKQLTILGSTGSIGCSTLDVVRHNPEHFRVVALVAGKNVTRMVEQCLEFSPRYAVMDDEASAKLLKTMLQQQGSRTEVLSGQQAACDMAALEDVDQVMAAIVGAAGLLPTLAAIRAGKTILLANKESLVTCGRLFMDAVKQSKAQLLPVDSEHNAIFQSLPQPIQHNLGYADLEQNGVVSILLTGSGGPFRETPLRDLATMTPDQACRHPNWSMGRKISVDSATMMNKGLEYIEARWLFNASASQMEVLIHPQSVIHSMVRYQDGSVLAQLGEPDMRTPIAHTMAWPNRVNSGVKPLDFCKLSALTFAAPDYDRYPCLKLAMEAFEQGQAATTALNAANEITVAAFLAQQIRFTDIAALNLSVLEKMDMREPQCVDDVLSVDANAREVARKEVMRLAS
Method: For DOXPR analysis, the compounds were screened using a kinetic protocol that spectrophotometrically evaluates oxidation of NADPH.
Stock solutions of each of the reagents were prepared in the following concentrations. Dilutions of the stock solutions were prepared prior to running the assay in the concentrations indicated below. DOXPR was diluted in 10 mM HEPES at a pH of 7.4.
The DOXPR reaction was monitored at 340 nm prior to and after addition of the inhibitor to detect background reaction with the inhibitor. Solutions of the inhibitors in DMSO were prepared to provide a final DMSO concentration of 5% of the total assay volume. These solutions were incubated for 6 minutes at 25° C. in a 990 μl of a solution containing 0.1 M HEPES, pH 7.4, 1 mM MnCl21.15 mM DOXP, and 8 μM NADPH. The oxidation reaction was then initiated with 10 μl of DOXP reductoisomerase (10 μg/ml). After the enzyme was added, the solution was mixed for 20 seconds, and the reaction was run for 10 minutes. After a 50 second lag, the samples were read in a Cary spectrophotometer at 340 nm. Reading of the samples was continued until 300 seconds. Cuvette #1 contained the control reaction (no inhibitor), and cuvette #2 contained the positive control reaction in which Cibacron Blue at 10.32 μM was substituted for inhibitor to yield 70 to 80% inhibition. The substrate was kept at a level at least 10 times the Km.

[3] = target: T1, alcohol dehydrogenase (ADH) (Saccharomyces cerevisiae, UniProt P00330); test: ADH kinetic assay, spectrophotometric reduction of NAD+ at 340 nm; assay type: biochemical, Bakers Yeast; settings: Cibacron Blue at 15.5 μM; read-out: inhibition of ADH (positive control)
T1 construct: 10 μl of ADH from Bakers Yeast; host or cells: baker's yeast
T1 sequence (P00330 1-348): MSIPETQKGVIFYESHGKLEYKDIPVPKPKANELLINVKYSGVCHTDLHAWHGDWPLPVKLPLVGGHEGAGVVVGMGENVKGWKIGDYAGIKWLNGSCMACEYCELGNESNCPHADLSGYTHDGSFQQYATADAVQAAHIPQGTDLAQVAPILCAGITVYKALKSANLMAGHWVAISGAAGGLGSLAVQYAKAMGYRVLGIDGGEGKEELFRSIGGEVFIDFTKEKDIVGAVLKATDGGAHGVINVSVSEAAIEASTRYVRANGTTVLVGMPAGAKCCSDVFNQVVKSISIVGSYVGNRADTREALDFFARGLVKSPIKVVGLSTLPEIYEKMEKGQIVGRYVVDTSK
Method: For ADH analysis, the compounds were screened using a kinetic protocol that spectrophotometrically evaluates reduction of NAD+.
(§1) Stock solutions of each of the reagents were prepared in the following concentrations. Dilutions of the stock solutions were prepared prior to running the assay in the concentrations indicated below.
The ADH reaction was monitored at 340 nm prior to and after addition of the inhibitor to detect background reaction with the inhibitor. Solutions of 100 μl of the inhibitors in DMSO were prepared to provide a final DMSO concentration of 5% of the total assay volume. These solutions were incubated for 6 minutes at 25° C. in a 990 μl of a solution containing 0.1 M HEPES, pH 8.0, 80 μM NAD+, and 130 mM of ethanol. The reaction was then initiated with 10 μl of ADH from Bakers Yeast ([…]; 1:400 dilution of 1.0 mg/ml). After the enzyme was added, the solution was mixed for 20 seconds, and the reaction was run for 10 minutes. After a 50 second lag, the samples were read in a Cary spectrophotometer at 340 nm. Reading of the samples was continued until 300 seconds. Cuvette #1 contained the control reaction (no inhibitor), and cuvette #2 contained the positive control reaction in which Cibacron Blue at 15.5 μM was substituted for inhibitor to yield 50 to 60% inhibition. The substrate was kept at a level at least 10 times the Km. The final concentration of […] was about 2.5 mM.
Where only a simple read was desired, as in the case of NAD+ concentration determination, 13 μl (10 M stock) of ethanol was used to drive the reaction, and 10 μl of pure enzyme (1 mg/ml) was used. NAD+was soluble at 2 mM, which allowed the concentration determination step to be skipped. In this situation, the procedure was as follows. All of the ingredients except for the enzyme were mixed together. The solution was mixed well and the absorbance at 340 nm read. The enzyme was added and read again at OD 340 after the absorbance stopped changing, generally 10 to 15 minutes after the enzyme was added.

[4] = target: T2, lactate dehydrogenase (LDH) (Oryctolagus cuniculus, UniProt P13491); test: LDH kinetic assay, spectrophotometric oxidation of NADH at 340 nm; assay type: biochemical, Rabbit Muscle; settings: Cibacron Blue at 10.3 μM; read-out: inhibition of LDH (positive control)
T2 construct: 10 μl of LDH from Rabbit Muscle; from tissue; host or cells: rabbit muscle
Method: For LDH analysis, the compounds were screened using a kinetic protocol that spectrophotometrically evaluates oxidation of NADH.
as §1
The LDH reaction was monitored at 340 nm prior to and after addition of the inhibitor to detect background reaction with the inhibitor. Solutions of 100 μl of the inhibitors in DMSO were prepared to provide a final DMSO concentration of 5% of the total assay volume. These solutions were incubated for 6 minutes at 25° C. in a 990 μl of a solution containing 0.1 M HEPES, pH 7.4, 10 μM NADH, and 2.5 mM of pyruvate. The reaction was then initiated with 10 μl of LDH from Rabbit Muscle (0.5 μg/ml; 1:2000 dilution of 1.0 mg/ml). After the enzyme was added, the solution was mixed for 20 seconds, and the reaction was run for 10 minutes. After a 50 second lag, the samples were read in a Cary spectrophotometer at 340 nm. Reading of the samples was continued until 300 seconds. Cuvette #1 contained the control reaction (no inhibitor), and cuvette #2 contained the positive control reaction in which Cibacron Blue at 10.3 μM was substituted for inhibitor to yield 50 to 70% inhibition. The substrate was kept at a level at least 10 times the Km.

[5] = Example 14, common ligand mimics (FIG. 8), read-out: IC50 for DHPR
[6] = Example 15, bi-ligands (FIG. 9), read-out: IC50 value for dihydrodipicolinate reductase (DHPR)

Sequence of dihydrodipicolinate reductase (DHPR) (P04036 whole entry): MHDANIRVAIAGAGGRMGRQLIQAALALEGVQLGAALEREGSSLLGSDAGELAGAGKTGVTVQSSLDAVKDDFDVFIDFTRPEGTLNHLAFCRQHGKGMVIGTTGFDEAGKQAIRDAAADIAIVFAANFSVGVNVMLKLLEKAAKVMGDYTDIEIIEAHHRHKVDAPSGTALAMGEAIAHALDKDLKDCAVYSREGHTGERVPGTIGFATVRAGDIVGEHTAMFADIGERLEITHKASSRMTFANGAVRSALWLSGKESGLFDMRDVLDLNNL

## COC(=O)c1ccc(-c2ccc(-c3nc4cc([N+](=O)[O-])ccc4[nH]3)o2)cc1 [4-[5-(5-nitro-1H-benzoimidazol-2-yl)-furan-2-yl]-benzoic acid methyl ester]
[1]; [5]
  IC50: > 25 µM

## Nc1c(S(=O)(=O)O)cc(Nc2ccc(Nc3nc(Cl)nc(Nc4ccccc4S(=O)(=O)O)n3)c(S(=O)(=O)O)c2)c2c1C(=O)c1ccccc1C2=O [Cibacron Blue, reference compound]
[1]; Cibacron Blue at 2.58 μM, read-out: inhibition of DHPR (positive control)
  inhibition at 2.58 µM: 70 to 80%
[2]
  inhibition at 10.32 µM: 70 to 80%
[3]
  inhibition at 15.5 µM: 50 to 60%
[4]
  inhibition at 10.3 µM: 50 to 70%

## Cc1cccc2[nH]c(-c3ccc(-c4ccc(C(=O)O)cc4)o3)nc12 [compound 6a, 4-[5-(4-methyl-1H-benzimidazol-2-yl)-furan-2-yl]-benzoic acid]
[1]; [5]
  IC50: > 100 µM

## Cc1ccc2[nH]c(-c3ccc(-c4ccc(C(=O)O)cc4)o3)nc2c1 [compound 6c, 4-[5-(5-methyl-1-benzoimidazol-2-yl)furan-2-yl]-benzoic acid]
[1]; [5]
  IC50: > 60 µM

## O=C(NCCSc1cc(C(=O)O)nc(C(=O)O)c1)c1ccc(-c2ccc(-c3nc4cc([N+](=O)[O-])ccc4[nH]3)o2)cc1 [compound 21a, 4-(2-{4-[5-(5-nitro-1H-benzoimidazol-2-yl)-furan-2-yl]-benzoylamino)-ethylsulfanyl)-pyridine-2,6-dicarboxylic acid]
[1]; [6]
  IC50: ~0.758 µM

## O=C(NCCSc1cc(C(=O)O)nc(C(=O)O)c1)c1ccc(-c2ccc(-c3nc4ccccc4[nH]3)o2)cc1 [compound 21b, 4-(2-{4-[5-(1H-benzoimidazol-2-yl)-furan-2-yl]-benzoylamino}-ethylsulfanyl)-pyridine-2,6-dicarbolxylic acid]
[1]; [6]
  IC50: > 1.6 µM
